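The compound was tested at five concentrations on cells cultured in 96-well plates, with a 48-hour exposure period. GI50: concentration for 50% inhibition of growth.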 Calls of active or inactive are those of the source. Cut-off read from the data, not from the text of the source: active = GI50 up to about 1.1 µM and inactive = higher.
What was measured:
Assay in all cases: NCI tumour cell line growth inhibition, 48 h
ACHN = test system: ACHN
EKVX = test system: EKVX
HCT-116 = test system: HCT-116
HOP-62 = test system: HOP-62
K562 = test system: K562
MDA-MB-231 = test system: MDA-MB-231
MDA-MB-435 = test system: MDA-MB-435
NCI-H460 = test system: NCI-H460
NCI-H522 = test system: NCI-H522
NCI/ADR-RES = test system: NCI/ADR-RES
OVCAR-8 = test system: OVCAR-8
SK-MEL-2 = test system: SK-MEL-2
SN12C = test system: SN12C
SNB-75 = test system: SNB-75
TK-10 = test system: TK-10
U-251 = test system: U-251
UACC-257 = test system: UACC-257
UACC-62 = test system: UACC-62
SK-OV-3 = test system: SK-OV-3
RPMI-8226 = test system: RPMI-8226

Row | SMILES | GI50 (ACHN) | GI50 (EKVX) | GI50 (HCT-116) | GI50 (HOP-62) | GI50 (K562) | GI50 (MDA-MB-231) | GI50 (MDA-MB-435) | GI50 (NCI-H460) | GI50 (NCI-H522) | GI50 (NCI/ADR-RES) | GI50 (OVCAR-8) | GI50 (SK-MEL-2) | GI50 (SN12C) | GI50 (SNB-75) | GI50 (TK-10) | GI50 (U-251) | GI50 (UACC-257) | GI50 (UACC-62) | GI50 (SK-OV-3) | GI50 (RPMI-8226)
1 | N#CC12CNCC1CN=N2 (configuration not stated) | > 100 µM (inactive) | > 100 µM (inactive) | > 100 µM (inactive) | > 100 µM (inactive) | > 100 µM (inactive) | > 100 µM (inactive) | > 100 µM (inactive) | > 100 µM (inactive) | > 100 µM (inactive) | > 100 µM (inactive) | > 100 µM (inactive) | > 100 µM (inactive) | > 100 µM (inactive) | > 100 µM (inactive) | > 100 µM (inactive) | > 100 µM (inactive) | > 100 µM (inactive) | > 100 µM (inactive) | – | –
2 | O=C1OC2C(O)C(=O)OC2C1O (configuration not stated) | > 100 µM (inactive) | > 100 µM (inactive) | > 100 µM (inactive) | > 100 µM (inactive) | > 100 µM (inactive) | > 100 µM (inactive) | > 100 µM (inactive) | > 100 µM (inactive) | > 100 µM (inactive) | > 100 µM (inactive) | > 100 µM (inactive) | > 100 µM (inactive) | > 100 µM (inactive) | 95.3 µM (inactive) | – | > 100 µM (inactive) | > 100 µM (inactive) | > 100 µM (inactive) | > 100 µM (inactive) | –
3 | COc1ccc(C[C@@H]2CN(C(=O)c3ccccc3)[C@H](Cc3ccc(O)cc3)CN2C(=O)c2ccccc2)cc1Br | > 100 µM (inactive) | > 100 µM (inactive) | > 100 µM (inactive) | > 100 µM (inactive) | > 100 µM (inactive) | – | > 100 µM (inactive) | > 100 µM (inactive) | – | > 100 µM (inactive) | > 100 µM (inactive) | > 100 µM (inactive) | > 100 µM (inactive) | > 100 µM (inactive) | > 100 µM (inactive) | – | > 100 µM (inactive) | – | > 100 µM (inactive) | 82.8 µM (inactive)
4 | CC1=CC(c2ccccc2)OP1(=O)c1ccccc1 (configuration not stated) | > 100 µM (inactive) | > 100 µM (inactive) | > 100 µM (inactive) | > 100 µM (inactive) | > 100 µM (inactive) | – | > 100 µM (inactive) | > 100 µM (inactive) | > 100 µM (inactive) | > 100 µM (inactive) | > 100 µM (inactive) | > 100 µM (inactive) | > 100 µM (inactive) | > 100 µM (inactive) | > 100 µM (inactive) | > 100 µM (inactive) | > 100 µM (inactive) | > 100 µM (inactive) | > 100 µM (inactive) | –
5 | CNC1(C(=O)O)CC1 | > 100 µM (inactive) | > 100 µM (inactive) | > 100 µM (inactive) | > 100 µM (inactive) | > 100 µM (inactive) | > 100 µM (inactive) | > 100 µM (inactive) | > 100 µM (inactive) | > 100 µM (inactive) | > 100 µM (inactive) | > 100 µM (inactive) | – | > 100 µM (inactive) | – | > 100 µM (inactive) | > 100 µM (inactive) | > 100 µM (inactive) | 69.2 µM (inactive) | – | > 100 µM (inactive)
6 | Cc1cc(C)nc(NS(=O)(=O)c2ccc(Nc3nncc(=O)n3N)cc2)n1 | 33.7 µM (inactive) | 23.1 µM (inactive) | 28.2 µM (inactive) | 18.7 µM (inactive) | 11.1 µM (inactive) | – | 18.6 µM (inactive) | 30.1 µM (inactive) | 12.8 µM (inactive) | 23.6 µM (inactive) | 15.4 µM (inactive) | 59 µM (inactive) | – | – | – | 17.7 µM (inactive) | 19.8 µM (inactive) | 19.8 µM (inactive) | 55.7 µM (inactive) | 9.44 µM (inactive)
7 | COc1c2c(c(OC)c3c(=O)cc(C/C(=N/NC(=O)C[n+]4ccccc4)C(=O)Nc4cc(C)ccc4C)oc13)OCO2 | > 100 µM (inactive) | > 100 µM (inactive) | > 100 µM (inactive) | > 100 µM (inactive) | > 100 µM (inactive) | – | – | > 100 µM (inactive) | > 100 µM (inactive) | – | > 100 µM (inactive) | > 100 µM (inactive) | > 100 µM (inactive) | > 100 µM (inactive) | > 100 µM (inactive) | > 100 µM (inactive) | > 100 µM (inactive) | > 100 µM (inactive) | > 100 µM (inactive) | > 100 µM (inactive)
8 | C=C(CO)[C@H]1Oc2ccc(C(C)=O)cc2[C@@H]1O | > 100 µM (inactive) | > 100 µM (inactive) | > 100 µM (inactive) | > 100 µM (inactive) | 67.9 µM (inactive) | > 100 µM (inactive) | 36.8 µM (inactive) | > 100 µM (inactive) | 88.7 µM (inactive) | – | > 100 µM (inactive) | > 100 µM (inactive) | > 100 µM (inactive) | 95.1 µM (inactive) | > 100 µM (inactive) | > 100 µM (inactive) | > 100 µM (inactive) | > 100 µM (inactive) | > 100 µM (inactive) | > 100 µM (inactive)
9 | C=C1C(=O)O[C@H]2C1C[C@@H](OC(C)=O)/C(C)=C/CC[C@@]1(C)O[C@H]21 (some centres not stated) | 4.33 µM (inactive) | 17.2 µM (inactive) | 8.75 µM (inactive) | 17.6 µM (inactive) | 2.09 µM (inactive) | – | 22.4 µM (inactive) | 33.3 µM (inactive) | 2.26 µM (inactive) | 11 µM (inactive) | 16.1 µM (inactive) | 21.8 µM (inactive) | 14.3 µM (inactive) | 28.2 µM (inactive) | 6.12 µM (inactive) | 70.1 µM (inactive) | 1.34 µM (inactive) | 3.05 µM (inactive) | 26.9 µM (inactive) | 2.27 µM (inactive)
10 | COc1cc2c3c(c1OC)C(=O)C(=O)C1=C3N(CCC1)CC2 | 42.1 µM (inactive) | 17.5 µM (inactive) | 18.5 µM (inactive) | 30.5 µM (inactive) | 5.7 µM (inactive) | 31.3 µM (inactive) | 22 µM (inactive) | 12.2 µM (inactive) | 19.7 µM (inactive) | 56 µM (inactive) | 21.5 µM (inactive) | 48.9 µM (inactive) | 32.4 µM (inactive) | – | 70 µM (inactive) | 15.5 µM (inactive) | 28.6 µM (inactive) | 18.1 µM (inactive) | – | –
11 | CC1=CC(=O)/C(=C/NC(N)=S)C(=O)O1 | > 100 µM (inactive) | > 100 µM (inactive) | > 100 µM (inactive) | 97.5 µM (inactive) | – | > 100 µM (inactive) | > 100 µM (inactive) | > 100 µM (inactive) | > 100 µM (inactive) | > 100 µM (inactive) | > 100 µM (inactive) | 50.2 µM (inactive) | > 100 µM (inactive) | 48.1 µM (inactive) | 10.1 µM (inactive) | > 100 µM (inactive) | > 100 µM (inactive) | > 100 µM (inactive) | 43.2 µM (inactive) | –
12 | O=C1/C(=C/c2cccc([N+](=O)[O-])c2)Sc2scc(-c3ccc([N+](=O)[O-])cc3)[n+]21 | 19.8 µM (inactive) | 18.4 µM (inactive) | 16 µM (inactive) | 16.6 µM (inactive) | – | 21.9 µM (inactive) | 16.9 µM (inactive) | 11.4 µM (inactive) | – | 19 µM (inactive) | 31.6 µM (inactive) | 20.2 µM (inactive) | 18.3 µM (inactive) | 11 µM (inactive) | – | 27.2 µM (inactive) | 21.8 µM (inactive) | 18.7 µM (inactive) | 69.5 µM (inactive) | –
13 | CC(C)(C)NC(=O)C12C3C4C1C1C2C3C41C(=O)NC(C)(C)C (configuration not stated) | > 100 µM (inactive) | > 100 µM (inactive) | > 100 µM (inactive) | 58.9 µM (inactive) | > 100 µM (inactive) | > 100 µM (inactive) | > 100 µM (inactive) | > 100 µM (inactive) | > 100 µM (inactive) | > 100 µM (inactive) | > 100 µM (inactive) | > 100 µM (inactive) | > 100 µM (inactive) | – | > 100 µM (inactive) | > 100 µM (inactive) | > 100 µM (inactive) | > 100 µM (inactive) | – | –
14 | O=C(O)Cc1ccc(Nc2nc3cc(C(F)(F)F)ccc3nc2C(=O)O)cc1 | > 100 µM (inactive) | > 100 µM (inactive) | > 100 µM (inactive) | > 100 µM (inactive) | – | – | > 100 µM (inactive) | > 100 µM (inactive) | > 100 µM (inactive) | > 100 µM (inactive) | > 100 µM (inactive) | > 100 µM (inactive) | > 100 µM (inactive) | > 100 µM (inactive) | > 100 µM (inactive) | > 100 µM (inactive) | > 100 µM (inactive) | > 100 µM (inactive) | > 100 µM (inactive) | –
15 | CCCCC(=O)OCC(=O)[C@]1(O)Cc2c(O)c3c(c(O)c2[C@@H](OC2CC(NC(=O)C(F)(F)F)C(O)C(C)O2)C1)C(=O)c1c(OC)cccc1C3=O (some centres not stated) | 0.406 µM (active) | 2.43 µM (inactive) | 0.294 µM (active) | 0.183 µM (active) | 0.337 µM (active) | 3 µM (inactive) | 2.07 µM (inactive) | 0.0214 µM (active) | 0.736 µM (active) | – | 0.519 µM (active) | 0.962 µM (active) | 0.29 µM (active) | 1.02 µM (active) | 2.47 µM (inactive) | 0.221 µM (active) | 1.3 µM (inactive) | 0.184 µM (active) | 0.345 µM (active) | 0.181 µM (active)
16 | CCOc1ccc(NCc2cc(OC)c(OC)c(OC)c2)cc1 | 6.15 µM (inactive) | 17.5 µM (inactive) | 0.533 µM (active) | 0.675 µM (active) | 0.269 µM (active) | 1.57 µM (inactive) | – | 0.614 µM (active) | 0.452 µM (active) | 0.359 µM (active) | – | – | – | 1.96 µM (inactive) | – | 0.536 µM (active) | 19.7 µM (inactive) | 0.481 µM (active) | 1.17 µM (inactive) | 1.58 µM (inactive)
